# In publication PMC6445163, “Design, synthesis, and evaluation of novel 2-phenylpropionic acid derivatives as dual COX inhibitory-antibacterial agents” (Journal of Enzyme Inhibition and Medicinal Chemistry, 2017):
# Marks after values point to notes of the source that are not given here.
# Key:
# [1] = system: Escherichia coli (ATCC 25922); test: broth microdilution MIC (CLSI M07-A9), resazurin; type: cell-based; details: ATCC25922, 24 h, read-out: MIC Ec-2
# Procedure: (§1) Microbiological studies were performed according to following guides: CLSI reference […]-A9 broth microdilution method[49] for bacterial strains and EUCAST definitive (EDef 7.1) method[50] for Candida species. Synthesized compounds were tested for their in vitro growth inhibitory activity against Staphylococcus aureus (ATCC 25923), Enterococcus faecalis (ATCC 29212), Listeria monocytogenes (ATCC 1911), Klebsiella pneumoniae (NCTC 9633), Escherichia coli (ATCC 35218), E. coli (ATCC 25922) Candida albicans (ATCC 24433) Candida krusei (ATCC 6258) and Candida parapsilosis (ATCC 22019). Chloramphenicol and ketoconazole were used as control drugs. The cultures were obtained from the Mueller-Hinton broth (Difco) for the bacterial strains after overnight incubation at 37 °C. The yeasts were maintained in Roswell Park Memorial Institute (RPMI) after overnight incubation at 37 °C. […] Testing was carried out in Mueller-Hinton broth and RPMI at pH =7, and the two-fold serial dilutions technique was applied. The last well on the microplates containing only inoculated broth was kept as controls and the last well with no growth of microorganism was recorded to represent the minimum inhibitory concentration (MIC) expressed in μg/mL. For both the antibacterial and antifungal assays, the compounds were dissolved in DMSO. […] The completed plates were incubated for 24 h. At the end of the incubation, resazurin (20 μg/mL) was added into each well and plates were incubated for 2 h. MIC values were determined using a microplate reader at […]. Synthesized compounds (6a-6m) were evaluated for antimicrobial activity against various microorganisms such as Staphylococcus aureus (ATCC 25923), Enterococcus faecalis (ATCC 29212), Listeria monocytogenes (ATCC 1911), Klebsiella pneumoniae (NCTC 9633), Escherichia coli (ATCC 35218), E. coli (ATCC 25922)Candida albicans (ATCC 24433) Candida krusei (ATCC 6258) and Candida parapsilosis (ATCC 22019). […] Chloramphenicol and ketoconazole were used as standard drugs in the activity test. […] Besides, the compounds 6d, 6h, 6l and 6m indicated stronger antibacterial activity than the other compounds in the series.
# [2] = system: Escherichia coli (ATCC 35218); test: broth microdilution MIC (CLSI M07-A9), resazurin; type: cell-based; details: ATCC35218, 24 h, read-out: MIC Ec-1
# Procedure: as §1
# [3] = system: Klebsiella pneumoniae (NCTC 9633); test: broth microdilution MIC (CLSI M07-A9), resazurin; type: cell-based; details: 24 h
# Procedure: as §1
# [4] = system: Staphylococcus aureus (ATCC 25923); test: broth microdilution MIC (CLSI M07-A9), resazurin; type: cell-based; details: ATCC25923, 24 h
# Procedure: as §1
# [5] = system: Listeria monocytogenes (ATCC 1911); test: broth microdilution MIC (CLSI M07-A9), resazurin; type: cell-based; details: ATCC1911, 24 h
# Procedure: as §1
# [6] = system: Enterococcus faecalis (ATCC 29212); test: broth microdilution MIC (CLSI M07-A9), resazurin; type: cell-based; details: ATCC29212, 24 h
# Procedure: as §1
# [7] = system: Salmonella typhimurium TA100 (base-pair substitutions); test: Ames MPF mutagenicity assay, TA100; type: cell-based; details: for mutagenicity classification against TA100: presence or absence of metabolic activation (S9)
# Procedure: Salmonella typhimurium strains, TA98 (frameshift mutations) and TA100 (base-pair substitutions), are used in this assay. Concentration range of the compounds was between […] and 5000 µg/mL according to the previous guidelines. Compounds were prepared in six different concentrations (5, 2.5, 1.25, 0.625, 0.3125 and 0.156 mg/mL) in DMSO. Mutagenic potential was determined in absence and presence of Aroclor™-1254 induced male Sprague–Dawley rat liver microsomal enzyme (S9) mix (Xenometrix AG, Switzerland). Positive controls without S9 mix were 2-Nitrofluorene (2 µg/mL) and 4-nitroquinoline N-oxide (0.1 µg/mL) whereas 1 and 2.5 µg/mL of 2-aminoanthracene solutions were used as positive controls with S9 against TA 98 and TA100, respectively. Solvent control was prepared with 4% DMSO. At the end of the experiment, revertant bacteria dropped the pH of solution and indicator medium color was changed to yellow. Yellow wells were counted as positive and compared with the negative control. Fold induction over the negative control and fold induction over the baseline were calculated. Fold induction over the negative control is the ratio of the mean number of positive wells for the dose concentration divided by the mean number of positive wells for the zero dose (negative) control. Fold induction over the baseline is the ratio of the mean number of positive wells for the dose concentration divided by zero dose baseline. The zero dose baseline is obtained by adding one standard deviation to the mean number of positive wells of the zero dose control. Mutagenicity was determined according to the criteria from previous studies[52]^,[56]. For a value ≤3 and significant increases between two and three-fold the baselines were classified as a weak mutagen, and increases ≥ three-fold the baselines were classified as a mutagen. […] As a rule, at least two adjacent doses with significant increases or a significant increase at the highest dose level should be observed for a mutagenic compound. All doses were compared according to Student’s t-test at p < .05 for statistical significance.
# Ames assay was performed to investigate the genotoxicity of compounds 6h and 6l.
# [8] = system: Candida krusei (ATCC 6258); test: broth dilution MIC (EUCAST EDef 7.1), resazurin; type: cell-based; details: Pichia kudriavzevii, ATCC6258, 24 h
# Procedure: as §1
# [9] = system: Candida albicans (ATCC 24433); test: broth dilution MIC (EUCAST EDef 7.1), resazurin; type: cell-based; details: ATCC24433, 24 h
# Procedure: as §1
# [10] = system: Candida parapsilosis (ATCC 22019); test: broth dilution MIC (EUCAST EDef 7.1), resazurin; type: cell-based; details: ATCC22019, 24 h
# Procedure: as §1
# MTT cytotoxicity test = details: mouse, NIH/3T3 mouse embryonic fibroblast cells
# Procedure: (§2) NIH/3T3 cells were incubated according to the supplier’s recommendations. NIH/3T3 cells were seeded at 1 × 10^4 cells into each well of 96-well plates. MTT assay was performed as previously described[51]^,[52].
# (§3) There are a number of requirements to be fulfilled for successful new drug development. […] This assay is based upon the reduction of yellow MTT dye by metabolically active eukaryotic and prokaryotic cells to form the purple formazan product. The assay is generally used to examine cell viability and to estimate cell culture growth[66]^,[67].
# [11] = system: NIH/3T3 mouse embryonic fibroblast cell line; test: MTT cytotoxicity test
# Procedure: as §2, §3
compound,measurement,setting,value
"COc1ccc2sc(SCc3ccc(C(C)C(=O)O)cc3)nc2c1 (centres unmarked) [Compound 6h, 2-(4-(((5-Methoxybenzo[d]thiazol-2-yl)thio)methyl)phenyl)propanoic acid]",MIC,[1],12.5 µg/mL
same,MIC,[2],6.25 µg/mL
same,MIC Kp,[3],6.25 µg/mL
same,MIC,[4],12.5 µg/mL
same,MIC,[5],6.25 µg/mL
same,MIC,[6],12.5 µg/mL
same,Revertants fold increase (over baseline) TA 100 S9+,[7]; 0.156 mg/mL,0.60
same,Revertants fold increase (over baseline) TA 100 S9+,[7]; 0.3125 mg/mL,0.50
same,Revertants fold increase (over baseline) TA 100 S9−,[7]; 0.3125 mg/mL,0.52
same,Revertants fold increase (over baseline) TA 100 S9+,[7]; 0.625 mg/mL,0.20
same,Revertants fold increase (over baseline) TA 100 S9−,[7]; 0.625 mg/mL,0.70
same,Revertants fold increase (over baseline) TA 100 S9+,[7]; 1.25 mg/mL,0.25
same,Revertants fold increase (over baseline) TA 100 S9−,[7]; 1.25 mg/mL,0.17
same,Revertants fold increase (over baseline) TA 100 S9+,[7]; 2.5 mg/mL,0.25
same,Revertants fold increase (over baseline) TA 100 S9−,[7]; 2.5 mg/mL,1.05
same,Revertants fold increase (over baseline) TA 100 S9+,[7]; 5 mg/mL,0.20
same,Revertants fold increase (over baseline) TA 100 S9−,[7]; 5 mg/mL,0.87
same,mutagenicity classification against TA100,[7],did not show any mutagenicity
same,MIC,[8],100 µg/mL
same,MIC,[9],50 µg/mL
same,MIC,[10],50 µg/mL
same,IC50,MTT cytotoxicity test,≥ 1000 µM
same,fold by which IC50 against COX enzymes is lower than IC50 against NIH/3T3 cells,[11],about 500 fold
"COc1ccc2[nH]c(SCc3ccc(C(C)C(=O)O)cc3)nc2c1 (centres unmarked) [Compound 6l, 2-(4-(((5-Methoxy-1H-benzo[d]imidazol-2-yl)thio)methyl)phenyl)propanoic acid]",MIC,[1],12.5 µg/mL
same,MIC,[2],6.25 µg/mL
same,MIC Kp,[3],6.25 µg/mL
same,MIC,[4],12.5 µg/mL
same,MIC,[5],6.25 µg/mL
same,MIC,[6],12.5 µg/mL
same,Revertants fold increase (over baseline) TA 100 S9+,[7]; 0.156 mg/mL,0.74
same,Revertants fold increase (over baseline) TA 100 S9−,[7]; 0.156 mg/mL,0.53a
same,Revertants fold increase (over baseline) TA 100 S9+,[7]; 0.3125 mg/mL,0.52
same,Revertants fold increase (over baseline) TA 100 S9−,[7]; 0.3125 mg/mL,0.27^a
same,Revertants fold increase (over baseline) TA 100 S9+,[7]; 0.625 mg/mL,0.52
same,Revertants fold increase (over baseline) TA 100 S9−,[7]; 0.625 mg/mL,0.13^a
same,Revertants fold increase (over baseline) TA 100 S9+,[7]; 1.25 mg/mL,0.00^a
same,Revertants fold increase (over baseline) TA 100 S9−,[7]; 1.25 mg/mL,0.13^a
same,Revertants fold increase (over baseline) TA 100 S9+,[7]; 2.5 mg/mL,0.00^a
same,Revertants fold increase (over baseline) TA 100 S9−,[7]; 2.5 mg/mL,0.20^a
same,Revertants fold increase (over baseline) TA 100 S9+,[7]; 5 mg/mL,0.00^a
same,Revertants fold increase (over baseline) TA 100 S9−,[7]; 5 mg/mL,0.00^a
same,mutagenicity classification against TA100,[7],non-mutagenic
same,MIC,[8],50 µg/mL
same,MIC,[9],50 µg/mL
same,MIC,[10],50 µg/mL
same,IC50,MTT cytotoxicity test,≥ 1000 µM
same,fold by which IC50 against COX enzymes is lower than IC50 against NIH/3T3 cells,[11],about 500 fold
